Data reported in US12465610B2, “Compounds and methods for the treatment of PKR-associated diseases” (Board of Regents, The University of Texas System, priority 2019, dated 2025).

Assays:
PI4KIIIa = PI4KIIIa (Homo sapiens, UniProt P42356); assay: ADP-Glo kinase assay, high-throughput enzymatic screening (Reaction Biology); type: biochemical
PI4KIIIb = PI4KIIIb (Homo sapiens, UniProt Q9UBF8); assay: as above; type: biochemical
PI3Ka = PI3Ka (Homo sapiens, UniProt P42336); assay: as above; type: biochemical
Chain of PI3Ka (P42336 whole entry): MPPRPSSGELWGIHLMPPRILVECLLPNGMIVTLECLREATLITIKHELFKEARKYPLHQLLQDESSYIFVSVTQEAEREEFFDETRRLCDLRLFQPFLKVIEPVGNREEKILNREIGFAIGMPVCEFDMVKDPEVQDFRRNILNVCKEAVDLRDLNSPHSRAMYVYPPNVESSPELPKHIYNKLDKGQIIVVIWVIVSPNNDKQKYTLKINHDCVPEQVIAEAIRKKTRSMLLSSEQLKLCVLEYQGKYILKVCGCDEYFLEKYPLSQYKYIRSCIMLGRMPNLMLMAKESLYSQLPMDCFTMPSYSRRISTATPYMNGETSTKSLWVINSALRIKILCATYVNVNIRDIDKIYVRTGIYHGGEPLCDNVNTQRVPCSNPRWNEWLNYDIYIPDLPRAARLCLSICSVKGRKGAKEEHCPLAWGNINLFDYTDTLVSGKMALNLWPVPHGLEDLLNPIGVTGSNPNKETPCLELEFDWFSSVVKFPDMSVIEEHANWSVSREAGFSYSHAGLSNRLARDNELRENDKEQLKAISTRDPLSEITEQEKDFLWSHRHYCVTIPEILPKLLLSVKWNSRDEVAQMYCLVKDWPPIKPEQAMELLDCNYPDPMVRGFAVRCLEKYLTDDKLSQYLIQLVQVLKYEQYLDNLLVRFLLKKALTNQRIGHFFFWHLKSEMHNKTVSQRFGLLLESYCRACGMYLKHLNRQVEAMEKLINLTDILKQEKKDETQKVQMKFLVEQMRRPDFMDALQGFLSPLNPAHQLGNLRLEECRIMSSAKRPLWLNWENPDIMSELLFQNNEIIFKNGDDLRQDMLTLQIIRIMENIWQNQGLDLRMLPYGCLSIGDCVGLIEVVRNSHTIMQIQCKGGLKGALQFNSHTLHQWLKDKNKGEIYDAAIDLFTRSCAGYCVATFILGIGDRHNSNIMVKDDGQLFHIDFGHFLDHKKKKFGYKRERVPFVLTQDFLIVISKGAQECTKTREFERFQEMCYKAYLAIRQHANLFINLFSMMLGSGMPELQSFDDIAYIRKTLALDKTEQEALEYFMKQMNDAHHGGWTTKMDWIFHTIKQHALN
Chain of PI3Ka (P27986 whole entry partner): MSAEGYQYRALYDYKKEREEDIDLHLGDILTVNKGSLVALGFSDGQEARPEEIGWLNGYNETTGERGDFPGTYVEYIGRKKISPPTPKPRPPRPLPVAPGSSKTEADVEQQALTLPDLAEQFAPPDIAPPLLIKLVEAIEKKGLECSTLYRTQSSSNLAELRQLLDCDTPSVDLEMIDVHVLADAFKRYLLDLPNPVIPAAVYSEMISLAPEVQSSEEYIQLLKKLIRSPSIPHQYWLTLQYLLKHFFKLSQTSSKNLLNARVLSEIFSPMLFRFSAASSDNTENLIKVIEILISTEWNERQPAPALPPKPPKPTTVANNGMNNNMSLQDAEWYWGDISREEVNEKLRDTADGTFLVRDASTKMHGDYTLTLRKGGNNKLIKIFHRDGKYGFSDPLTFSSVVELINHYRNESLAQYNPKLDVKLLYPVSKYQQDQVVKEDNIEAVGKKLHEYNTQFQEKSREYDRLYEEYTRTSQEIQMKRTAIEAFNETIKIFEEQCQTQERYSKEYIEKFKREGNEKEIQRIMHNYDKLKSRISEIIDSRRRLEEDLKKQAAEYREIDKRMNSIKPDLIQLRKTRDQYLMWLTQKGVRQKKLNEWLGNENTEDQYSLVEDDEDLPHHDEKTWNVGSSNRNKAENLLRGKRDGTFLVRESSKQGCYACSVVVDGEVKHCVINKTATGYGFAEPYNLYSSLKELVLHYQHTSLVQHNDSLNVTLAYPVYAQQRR

PIM3 = PIM3 (Homo sapiens, UniProt Q86V86); assay: High-throughput enzymatic screening; type: biochemical
PIM1 = PIM1 (Homo sapiens, UniProt P11309); assay: High-throughput enzymatic screening; type: biochemical
Chain of PIM1 (P11309 whole entry): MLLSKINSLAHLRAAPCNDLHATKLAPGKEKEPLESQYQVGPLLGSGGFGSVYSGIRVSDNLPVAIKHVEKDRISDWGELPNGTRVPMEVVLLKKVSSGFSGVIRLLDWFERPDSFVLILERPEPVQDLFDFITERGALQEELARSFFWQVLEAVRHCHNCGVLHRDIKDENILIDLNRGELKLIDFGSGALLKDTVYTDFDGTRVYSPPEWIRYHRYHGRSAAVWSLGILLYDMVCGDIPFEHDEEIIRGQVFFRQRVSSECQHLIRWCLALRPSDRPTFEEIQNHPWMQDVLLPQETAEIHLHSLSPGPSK

PI4K2A protein = assay: Thermal shift assay (differential scanning fluorimetry); type: binding
A549 = assay: SRB cell viability assay; type: cell-based, human; conditions: 72 hours after treatment
Protocol: (§1) The effects of Pac 1 and Pac 2 were next examined on PKR protein expression in HeLa cells using Western blot analysis. […] No reduction in normal cell viability was observed after treatment with Pac 1 or Pac 2 (FIGS. 5F and G). […] Because most of the cancer cell lines that were tested were more sensitive to Pac 1 than to Pac 2, Pac 1 was further investigated.
(§2) Cell viability assays: For SRB assays, cells (2-8×10^3/well in 100 μL of culture medium) were seeded in 96-well flat-bottomed plates and treated the next day with compounds at the indicated concentrations. After the indicated treatments, cells were fixed with trichloroacetic acid. The protein was stained with SRB, and the optical density at 570 nm was determined. Relative cell viability was calculated by setting the viability rate of the control cells (exposed only to dimethyl sulfoxide) at 100% and comparing the viability of the treated cells with that of the controls. The experiments were performed at least three times for each cell line. The viability of leukemia cell lines was determined by using a 3-(4,5-dimethylthiazol-2-yl)-2,5-diphenyltetrazolium bromide assay.
(§3) For the SRB assay, cells (2-8×10^3/well in 100 μL of culture medium) were seeded in 96-well flat-bottomed plates and treated the next day with compounds at the indicated concentrations. After treatment for the indicated times, cells were fixed with trichloroacetic acid. The cells were stained using SRB, and the optical density at 570 nm was determined. Relative cell viability was determined by setting the viability of the control cells (exposed only to dimethyl sulfoxide) at 100% and comparing their viability with that of the treated cells. The experiments were performed at least three times for each cell line.

H1299 = assay: SRB cell viability assay; type: cell-based, human; conditions: 72 hours after treatment
Protocol: as §1, §2, §3

breast cancer cell lines = assay: SRB cell viability assay; type: cell-based, human; conditions: 72 hours after treatment
Protocol: as §1, §2, §3

LOVO colon cancer cells = assay: SRB cell viability assay; type: cell-based, human; conditions: 72 hours after treatment
Excerpt: PKR and PI4K2A expression are associated with poor prognosis in cancer patients: PKR and PI4K2A are encoded by the EIF2AK2 and PI4K2A genes, respectively. […] It was also examined the expression of PKR using immunohistochemical staining of five normal skin and five breast tumor samples and observed that all of the breast tumor cells had high cytoplasmic PKR expression (FIG. 7C). However, all of the normal skin cells had low cytoplasmic PKR expression, and some of them had high nuclear PKR expression. […] Furthermore, the association between EIF2AK2 or PI4K2A gene expression and overall survival was evaluated in colorectal cancer patients using the TCGA data set. […]
as §2, with “After the indicated treatments, cells were fixed with trichloroacetic acid.” left out, “The experiments were performed at least three times for each cell line.” left out, “assay. […]” for “assay.”

leukemia cell lines = assay: 3-(4,5-dimethylthiazol-2-yl)-2,5-diphenyltetrazolium bromide viability assay; type: cell-based
Protocol: as §2

AP-1/2/3 complexes = assay: Western blot of AP-1, AP-2 and AP-3 complex-associated proteins; type: cell-based, human; conditions: H1299 and MDA-MB-231 cells
Excerpt: Western blotting was next used to evaluate proteins known to be involved in AP-1/2/3 complexes in lung (H1299) and breast (MDA-MB-231) cancer cells after treatment with Pac 1 or Pac 2. […] AP-1 and AP-2 mediate protein sorting in the endosome, trans-Golgi network, and plasma membrane. […] The impact of Pac 1 was then investigated on lysosome function by staining cells with the acidophilic dye LysoTracker Red.

[1] = tested on: lysosomes and MVBs/exosomes; assay: Transmission electron microscopy (TEM) of treated cells; type: cell-based, human
[2] = molecular target: PKR coimmunoprecipitated with PI4K2A (Homo sapiens, UniProt Q9BTU6); type: cell-based
Chain of PKR coimmunoprecipitated with PI4K2A (Q9BTU6 whole entry, looked up): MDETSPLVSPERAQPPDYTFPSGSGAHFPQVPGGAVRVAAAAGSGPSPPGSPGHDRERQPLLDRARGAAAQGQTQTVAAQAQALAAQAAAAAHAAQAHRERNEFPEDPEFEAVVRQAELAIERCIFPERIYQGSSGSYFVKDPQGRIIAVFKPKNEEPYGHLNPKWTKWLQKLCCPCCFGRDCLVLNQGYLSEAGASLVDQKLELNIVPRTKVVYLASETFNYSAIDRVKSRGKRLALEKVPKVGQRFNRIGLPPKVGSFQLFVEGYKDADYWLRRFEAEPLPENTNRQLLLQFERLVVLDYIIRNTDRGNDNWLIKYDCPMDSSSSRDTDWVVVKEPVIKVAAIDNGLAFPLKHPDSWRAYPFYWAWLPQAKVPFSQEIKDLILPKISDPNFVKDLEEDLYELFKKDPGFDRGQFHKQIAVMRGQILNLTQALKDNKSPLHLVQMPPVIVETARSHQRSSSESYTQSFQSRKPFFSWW

[3] = tested on: p-4EBP1, eEF2K, GSK3ab, IRS1 and Caveolin; assay: RPPA assay of 156 proteins; type: cell-based, human; conditions: H1299 and A549 cells, 72 hours; Pac 1 5 and 10 μM, Pac 2 10 μM
Protocol: The translation regulator eukaryotic […] 4EBP1 is phosphorylated by and is a substrate of PIM3 and PIM1. To further determine whether treatment with Pac 1 affects PIM3/1 downstream targets, the expression of 156 proteins in H1299 and A549 cells was analyzed after treatment with Pac 1 or Pac 2 using an RPPA assay. […] Others reported cross-talk of PP2A with PKR and 4EBP1 protein in cancer cells.

p-4EBP1 (T70), PP2A = assay: Western blot of p-4EBP1 and p-PP2Ac; type: cell-based, human; conditions: H1299 and A549 cells
HeLa cells = assay: Microscopic analysis of morphologic changes; type: cell-based, human
Excerpt: Anticancer effects of PKR-targeting compounds depend on PKR expression status: To identify compounds that can target lysosomes in PKR-positive cells or MVBs/exosomes in PKR-negative cells, the 10,000-compound ChemBridge library was screened for compounds with different effects on the growth of HeLa and HeLaPKRkd cells. […] SRB assays were next used to determine cell viability after treatment with Pac 1 or Pac 2.
Identification of PKR-associated compounds and cytotoxicity studies: The library of 10,000 compounds was screened for those with different effects on the growth of HeLa and HeLaPKRkd cells. For this screening, both HeLa and HeLaPKRkd cells were seeded in 96-well plates in parallel and treated with each compound at a final concentration of 5 μg/mL. Cells treated with dimethyl sulfoxide (final concentration, 1%) were used as controls. Treated cells were observed under a microscope to detect morphologic changes, and their viability was determined using SRB assays 2 and 3 days after treatment. The compounds initially observed to have different effects on HeLa and HeLaPKRkd cells were subjected to two confirmatory screenings.

PI4K2A kinase = PI4K2A kinase (Homo sapiens, UniProt Q9BTU6); assay: ADP-Glo kinase assay, high-throughput enzymatic screening (Reaction Biology)
Chain of PI4K2A kinase (Q9BTU6 whole entry): as the sequence (Q9BTU6 whole entry, looked up) above

Chain of PI4KIIIb (Q9UBF8 whole entry): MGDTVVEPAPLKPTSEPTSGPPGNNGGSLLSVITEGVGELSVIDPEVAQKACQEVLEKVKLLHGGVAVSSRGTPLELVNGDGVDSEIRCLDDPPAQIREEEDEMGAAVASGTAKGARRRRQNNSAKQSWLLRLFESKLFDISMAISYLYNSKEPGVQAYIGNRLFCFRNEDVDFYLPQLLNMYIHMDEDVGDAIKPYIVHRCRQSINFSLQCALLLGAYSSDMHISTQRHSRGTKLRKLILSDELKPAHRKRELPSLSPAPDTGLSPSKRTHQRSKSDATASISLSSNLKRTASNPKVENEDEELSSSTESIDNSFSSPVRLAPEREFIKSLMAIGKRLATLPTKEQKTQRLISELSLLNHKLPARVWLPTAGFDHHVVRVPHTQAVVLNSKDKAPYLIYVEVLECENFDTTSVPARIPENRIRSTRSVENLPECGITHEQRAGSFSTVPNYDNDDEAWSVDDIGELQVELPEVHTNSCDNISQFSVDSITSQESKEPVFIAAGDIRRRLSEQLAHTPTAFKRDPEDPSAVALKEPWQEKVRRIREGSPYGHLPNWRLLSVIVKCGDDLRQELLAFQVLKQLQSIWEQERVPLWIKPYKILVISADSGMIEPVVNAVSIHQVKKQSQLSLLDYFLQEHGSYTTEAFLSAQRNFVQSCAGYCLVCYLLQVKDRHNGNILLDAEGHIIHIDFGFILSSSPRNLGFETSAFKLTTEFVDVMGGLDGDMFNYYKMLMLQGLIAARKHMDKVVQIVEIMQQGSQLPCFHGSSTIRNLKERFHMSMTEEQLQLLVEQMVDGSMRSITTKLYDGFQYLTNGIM

## O=C(N/N=C\c1c(O)ccc2ccccc12)c1cccc2cc[nH]c12 [Pac 1, N′—[(Z)-(2-Hydroxy-1-naphthyl)methylene]-1H-indole-7-carbohydrazide]
PI4KIIIa
  inhibition of kinase activity: not other kinases
PI4KIIIb
  inhibition of kinase activity: not other kinases
PI3Ka
  inhibition of kinase activity: not other kinases
PIM3
  inhibition of PIM3/1 activity: markedly inhibited
PIM1
  inhibition of PIM3/1 activity: markedly inhibited
PI4K2A protein
  binding to PI4K2A and change of melting temperature: binds to PI4K2A and causes a decrease in the melting temperature
A549
  sensitivity (viability) of A549 cells: more sensitive to treatment with Pac 1 than that with Pac 2
H1299
  sensitivity (viability) of H1299 cells: more sensitive to treatment with Pac 1 than that with Pac 2
Breast cancer cell lines
  growth of breast cancer cell lines: inhibited the growth
LOVO colon cancer cells
  growth of LOVO colon cancer cells: inhibited the growth
Leukemia cell lines
  growth of leukemia cell lines: growth inhibition
AP-1/2/3 complexes; 5 μM, 72 hours
  PI4K2A, Lamp1, Lamp2, and AP-3δ expression: significantly inhibited
AP-1/2/3 complexes; 72 hours after treatment
  expression of proteins associated with AP-1 (Rab7α, HSC70, AP-1γ) or AP-2 (AP-2α): No reduction of expression
[1]; HeLa cells, 5 μM
  lysosomes by TEM: destruction of lysosomes
[1]; HeLaPKRkd cells
  lysosomes and MVBs/exosomes by TEM: a lack of lysosomes but enrichment of MVBs/exosomes
[2]
  amount of PKR coimmunoprecipitated with PI4K2A: decreased to undetectable levels
[3]
  levels of p-4EBP1 (S65, T37, and T70), eEF2K, GSK3ab, IRS1 and Caveolin: significantly inhibited
p-4EBP1 (T70), PP2A
  PP2A activity, indicated by dissociation of the p-PP2Ac complex: Inactivation of PP2A was observed
p-4EBP1 (T70), PP2A; 72 hours after treatment
  expression of p-4EBP1 (T70) protein: reduction of expression
HeLa cells
  growth of HeLa cells by microscopy: suppressed the growth of HeLa cells more effectively than did treatment with Pac 2
PI4K2A kinase
  IC50: 2500 nM
